Read-outs that look alike come from different tables or passages of the source.
Tests used:
MS751 cells = experiment: MTT cell proliferation assay, MS751; assay type: cell-based, human
Outline: (§1)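 Read-out: MTT reduction to formazan, solubilised and measured at 490 nm after ~4 h with MTT; inhibition (%) = (1-(ODo/OD))×100 relative to negative control. Seeding was 5,000-10,000 cells/well with overnight attachment. Eight test concentrations spanned 1 nM-30 μM; mostly duplicate, mean ± SE.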

3T3 cells = experiment: MTT cell proliferation assay, 3T3; assay type: cell-based, mouse
Outline: as §1

Z138 cells = experiment: MTT cell proliferation assay, Z138; assay type: cell-based
Outline: as §1

[1] = Homo sapiens, MS751, MS751 cells, eight concentrations 1 nM to 30 μM, incubation approximately 64-72 hours, read-out: MTT Assay IC50, MS751
[2] = Mus musculus, NIH3T3, 3T3 cells, eight concentrations 1 nM to 30 μM, incubation approximately 64-72 hours, read-out: MTT Assay IC50, 3T3
[3] = Homo sapiens, Z-138, Z138 cells, eight concentrations 1 nM to 30 μM, incubation approximately 64-72 hours, read-out: MTT Assay IC50, Z138
[4] = Homo sapiens, MS751, MS751 cells, approximately 64-72 hours incubation, read-out: MTT Assay IC50, MS751
[5] = Mus musculus, NIH3T3, 3T3 cells, approximately 64-72 hours incubation, read-out: MTT Assay IC50, 3T3
[6] = Homo sapiens, Z-138, Z138 cells, approximately 64-72 hours incubation, read-out: MTT Assay IC50, Z138

SMILES	IC50 (MS751 cells; [1]) [µM]	IC50 (3T3 cells; [2]) [µM]	IC50 (Z138 cells; [3]) [µM]	IC50 (MS751 cells; [4]) [µM]	IC50 (3T3 cells; [5]) [µM]	IC50 (Z138 cells; [6]) [µM]	other results
CC(=O)c1ccc(-c2cc(Cl)c3c(c2)CC(CNC(=O)/C=C/c2c(C)nn(CC(C)C)c2Cl)O3)s1 (stereo not drawn) [Compound 154, (E)-N-((5-(5-acetylthiophen-2-yl)-7-chloro-2,3-dihydrobenzofuran-2-yl)methyl)-3-(5-chloro-1-isobutyl-3-methyl-1H-pyrazol-4-yl)acrylamide]	> 30	> 30	> 30				
CC(=O)c1ccc(-c2cc(Cl)c3c(c2)CC(CNC(=O)/C=C/c2cccnn2)O3)s1 (single isomer, unassigned) [Compound 318, (E)-N-((5-(5-acetylthiophen-2-yl)-7-chloro-2,3-dihydrobenzofuran-2-yl)methyl)-3-(pyridazin-3-yl)acrylamide]							IC50 (MS751 cells; MS751 cells, approximately 64-72 hours incubation, read-out: MTT Assay IC50, MS751): 0.1 to 5 µM; IC50 (3T3 cells; 3T3 cells, approximately 64-72 hours incubation, read-out: MTT Assay IC50, 3T3): > 30 µM; IC50 (Z138 cells; Z138 cells, approximately 64-72 hours incubation, read-out: MTT Assay IC50, Z138): 0.1 to 5 µM
CC(=O)c1ccc(-c2cc(Cl)c3c(c2)CC(CNC(=O)/C=C/c2ccc(O)nc2)O3)s1 (stereo not drawn) [Compound 311, (E)-N-((5-(5-acetylthiophen-2-yl)-7-chloro-2,3-dihydrobenzofuran-2-yl)methyl)-3-(6-hydroxypyridin-3-yl)acrylamide]							IC50 (MS751 cells; Homo sapiens, MS751, read-out: MTT Assay IC50, MS751): > 30 µM; IC50 (3T3 cells; Mus musculus, NIH3T3, read-out: MTT Assay IC50, 3T3): > 30 µM; IC50 (Z138 cells; Homo sapiens, Z-138, read-out: MTT Assay IC50, Z138): > 30 µM
Nc1ccc(/C=C/C(=O)NCC2Cc3cc(-c4ccc(C(=O)N5CCOCC5)cn4)cc(Cl)c3O2)cn1 (stereo not drawn) [Compound 333, (E)-3-(6-Aminopyridin-3-yl)-N-((7-chloro-5-(5-(morpholine-4-carbonyl)pyridin-2-yl)-2,3-dihydrobenzofuran-2-yl)methyl)acrylamide]				< 0.1	5 to 30	< 0.1	
CC(=O)c1ccc(-c2cc(Cl)c3c(c2)CC(CNC(=O)/C=C/c2cscn2)O3)s1 (stereo not drawn) [Compound 272, (E)-N-((5-(5-Acetylthiophen-2-yl)-7-chloro-2,3-dihydrobenzofuran-2-yl)methyl)-3-(thiazol-4-yl)acrylamide]	> 30	5 to 30	> 30				
CC(=O)c1ccc(-c2cc(Cl)c3c(c2)CC(CN)O3)s1 (stereo not drawn) [Compound 26]	5 to 30	5 to 30	5 to 30				
Cc1noc(-c2ccccc2)c1-c1cc(Cl)c2c(c1)CC(CNC(=O)/C=C/c1ccc(N)nc1)O2 (stereo not drawn) [Compound 327, (E)-3-(6-aminopyridin-3-yl)-N-((7-chloro-5-(3-methyl-5-phenylisoxazol-4-yl)-2,3-dihydrobenzofuran-2-yl)methyl)acrylamide]				0.1 to 5	0.1 to 5	< 0.1	
CC(=O)c1ccc(-c2cc(Cl)c3c(c2)CC(CNC(=O)/C(C)=C/c2cccnc2)O3)s1 (stereo not drawn) [Compound 262, (E)-N-((5-(5-acetylthiophen-2-yl)-7-chloro-2,3-dihydrobenzofuran-2-yl)methyl)-2-methyl-3-(pyridin-3-yl) acrylamide]	5 to 30	> 30	5 to 30				
Nc1ccc(CNC(=O)/C=C/C2Cc3cc(-c4ccc(C(=O)N5CC(F)C5)cc4)cc(Cl)c3O2)cn1 (stereo not drawn) [Compound 361, (E)-N-((6-Aminopyridin-3-yl)methyl)-3-(7-chloro-5-(4-(3-fluoroazetidine-1-carbonyl)phenyl)-2,3-dihydrobenzofuran-2-yl)acrylamide]				0.1 to 5	0.1 to 5	0.1 to 5	
CCn1nccc1/C=C/C(=O)NCC1Cc2cc(-c3ccc(C(C)=O)s3)cc(Cl)c2O1 (stereo not drawn) [Compound 274, (E)-N-((5-(5-acetylthiophen-2-yl)-7-chloro-2,3-dihydrobenzofuran-2-yl)methyl)-3-(1-ethyl-1H-pyrazol-5-yl)acrylamide]	5 to 30	> 30	5 to 30				
Nc1ccc(/C=C/C(=O)NCC2Cc3cc(-c4cc(F)c(C(=O)N5CCOCC5)c(F)c4)cc(Cl)c3O2)cn1 (stereo not drawn) [Compound 332, (E)-3-(6-Aminopyridin-3-yl)-N-((7-chloro-5-(3,5-difluoro-4-(morpholine-4-carbonyl)phenyl)-2,3-dihydrobenzofuran-2-yl)methyl)acrylamide]				< 0.1	0.1 to 5	< 0.1	
Nc1ccc(/C=C/C(=O)NCC2Cc3cc(-c4ccc(C(=O)N5CCOCC5)nn4)cc(Cl)c3O2)cn1 (stereo not drawn) [Compound 331, (E)-3-(6-Aminopyridin-3-yl)-N-((7-chloro-5-(6-(morpholine-4-carbonyl)pyridazin-3-yl)-2,3-dihydrobenzofuran-2-yl)methyl)acrylamide]				0.1 to 5	5 to 30	< 0.1	
CC(=O)c1ccc(-c2cc(Cl)c3c(c2)CC(CNC(=O)/C=C/c2cnc4ccccc4n2)O3)s1 (stereo not drawn) [Compound 151, (E)-N-((5-(5-acetylthiophen-2-yl)-7-chloro-2,3-dihydrobenzofuran-2-yl)methyl)-3-(quinoxalin-2-yl)acrylamide]	> 30	> 30	> 30				
CC(=O)c1ccc(-c2cc(Cl)c3c(c2)CC(CNC(=O)/C=C/Cc2cccnc2)O3)s1 (stereo not drawn) [Compound 222, (E)-N-((5-(5-acetylthiophen-2-yl)-7-chloro-2,3-dihydrobenzofuran-2-yl)methyl)-4-(pyridin-3-yl)but-2-enamide]				0.1 to 5	5 to 30	0.1 to 5	
CC(=O)c1ccc(-c2ccc3c(c2)CC(CNC(=O)/C=C/c2cccnc2)O3)s1 (stereo not drawn) [Compound 292, (E)-N-((5-(5-acetylthiophen-2-yl)-2,3-dihydrobenzofuran-2-yl)methyl)-3-(pyridin-3-yl)acrylamide]				0.1 to 5	0.1 to 5	0.1 to 5	
Nc1ccc(/C=C/C(=O)NCC2Cc3cc(-c4ccc(C(=O)N5CC(F)(F)C5)cn4)cc(Cl)c3O2)cn1 (stereo not drawn) [Compound 338, (E)-3-(6-aminopyridin-3-yl)-N-((7-chloro-5-(5-(3,3-difluoroazetidine-1-carbonyl)pyridin-2-yl)-2,3-dihydrobenzofuran-2-yl)methyl)acrylamide]				< 0.1	0.1 to 5	< 0.1	
CC(=O)c1ccc(-c2cc(Cl)c3c(c2)CC(CNC(=O)/C=C/c2cccnc2)O3)s1 (stereo not drawn) [Compound 27, (E)-N-((5-(5-acetylthiophen-2-yl)-7-chloro-2,3-dihydrobenzofuran-2-yl)methyl)-3-(pyridin-3-yl)acrylamide]	< 0.1	0.1 to 5	< 0.1				
O=C(/C=C/c1cccnc1)NCC1Cc2cc(-c3cccc(F)c3F)cc(Cl)c2O1 (stereo not drawn) [Compound 73, (E)-N-((7-chloro-5-(2,3-difluorophenyl)-2,3-dihydrobenzofuran-2-yl)methyl)-3-(pyridin-3-yl)acrylamide]	0.1 to 5	5 to 30	0.1 to 5				
CC(=O)c1ccc(-c2cc(Cl)c3c(c2)CC(CN(C)C(=O)/C=C/c2cccnc2)O3)s1 (stereo not drawn) [Compound 125, (E)-N-((5-(5-acetylthiophen-2-yl)-7-chloro-2,3-dihydrobenzofuran-2-yl)methyl)-N-methyl-3-(pyridin-3-yl)acrylamide]	5 to 30	5 to 30	5 to 30				
CC(=O)c1ccc(-c2cc(Cl)c3c(c2)CC(CNC(=O)/C(C#N)=C/c2cccnc2)O3)s1 (stereo not drawn) [Compound 195, (E)-N-((5-(5-acetylthiophen-2-yl)-7-chloro-2,3-dihydrobenzofuran-2-yl)methyl)-2-cyano-3-(pyridin-3-yl)acrylamide]				5 to 30	> 30	5 to 30	

Reference: patent US9938258B2 (Karyopharm Therapeutics Inc., priority 2012, dated 2018)
